The experiment has as its system PA-23 rhabdomyosarcoma. The experiment can be described thus: PA-23 rhabdomyosarcoma lung metastases after inoculation in the caudal vein of rats. The experiment is classed as in vivo. The conditions noted are these: Example 2; 0.003 mg/ml in sodium chloride isotonic solution. As to the method:
The preparation anti-tumor action was tested on female white rats.
The PA-23 rhabdomyosarcoma cell suspension was inoculated in the caudal vein of all rats, being generally used as a model for investigating the ability of such preparations to inhibit stroma development, which is characteristic of most malignant tumors.
All the animals were divided into 5 groups. On the following day after the inoculation a physiological solution was intra-abdominal injected into the rats of Group 1 (0.5 ml per animal); 0.1 ml of the preparation—into the rats of Group 2, 0.3 ml of the preparation—into the rats of Group 3; 0.5 ml of the preparation—into the rats of Group 4; and 0.8 ml of the preparation—into the rats of Group 5. Prior to administration the preparation had been diluted with a physiological solution in the ratio of 1 to 10.
Subsequent administration of the preparation […] was carried out every third day. On the 20 th day following the tumoral inoculation the rats were destroyed. Their bodies were dissected, the number of metastases in their lungs calculated and their respective weight determined by means of analytical balance weighing.
As in Example 1, the PA-23 rhabdomyosarcomas were used as a model. Tumoral inoculation was performed in a similar way. The laboratory animals were also divided into groups. The sodium chloride isotonic solution was injected into Group 1 (control), potassium tetrachloroplatinate in the sodium chloride isotonic solution—into Group 2, ammonium lignohumic acid salts in the sodium chloride isotonic solution were injected into Group 3, injections of the proposed preparation diluted with a physiological solution in the ratio of 1 to 10 were given to Group 4.

Regarding `[Cl][Pt-2]([Cl])([Cl])[Cl].[K+].[K+]` [Potassium tetrachloroplatinate solution, potassium tetrachloroplatinate], the “Average number of metastases per rat” value is given as 33.2 ± 6.2; the “Average weight of 1 metastasis” value is recorded as 42.9 ± 4.3 mg; the “Average weight of 1 metastasis, % of the Control Group” value turned out to be 88.5%; the Number of metastases is 531.

The record behind these values is patent US7410655B2, “Anticancer agent” (Nobel Limited Liability Company, priority 2001, dated 2008).
